# In patent US5866717A, “Metalloproteinase inhibitors” (British Biotech Pharmaceuticals Limited, priority 1994, dated 1999):
# Columns and labels:
# aqueous solubility = type: physicochemical; conditions: for solubility: water, read-out: Aq. solubility
# [1] = target: T1, Human fibroblast collagenase (Homo sapiens, UniProt P03956); experiment: biochemical
# T1 sequence (P03956 100-469): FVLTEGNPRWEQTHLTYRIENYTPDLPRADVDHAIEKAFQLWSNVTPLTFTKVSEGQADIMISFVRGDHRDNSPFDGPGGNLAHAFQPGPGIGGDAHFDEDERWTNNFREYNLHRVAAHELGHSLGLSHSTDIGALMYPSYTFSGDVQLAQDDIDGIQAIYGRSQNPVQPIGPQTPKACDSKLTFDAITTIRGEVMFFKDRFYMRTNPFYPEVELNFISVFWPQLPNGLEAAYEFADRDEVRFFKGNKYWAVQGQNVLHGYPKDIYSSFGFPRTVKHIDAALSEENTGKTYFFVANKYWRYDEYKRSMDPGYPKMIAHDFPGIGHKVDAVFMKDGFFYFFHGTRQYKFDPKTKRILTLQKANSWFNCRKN
# Getatinase A = target: T2, Getatinase A (Homo sapiens, UniProt P08253); experiment: biochemical
# T2 sequence (P08253 110-660): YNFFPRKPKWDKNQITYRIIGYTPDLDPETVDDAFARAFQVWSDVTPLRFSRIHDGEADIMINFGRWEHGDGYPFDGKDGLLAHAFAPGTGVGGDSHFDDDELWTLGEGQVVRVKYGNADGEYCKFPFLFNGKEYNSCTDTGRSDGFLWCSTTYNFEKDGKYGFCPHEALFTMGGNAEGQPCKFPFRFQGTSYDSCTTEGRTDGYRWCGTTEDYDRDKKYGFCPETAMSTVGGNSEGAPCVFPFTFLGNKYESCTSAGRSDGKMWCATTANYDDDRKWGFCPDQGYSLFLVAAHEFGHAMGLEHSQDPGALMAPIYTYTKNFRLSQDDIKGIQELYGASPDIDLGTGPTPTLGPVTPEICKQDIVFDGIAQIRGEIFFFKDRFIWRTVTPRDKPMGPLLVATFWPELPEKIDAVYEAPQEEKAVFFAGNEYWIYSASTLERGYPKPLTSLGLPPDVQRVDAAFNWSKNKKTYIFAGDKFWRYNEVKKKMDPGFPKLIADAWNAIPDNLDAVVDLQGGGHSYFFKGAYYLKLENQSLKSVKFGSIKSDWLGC
# Stromelysin-1 = Stromelysin-1 (Homo sapiens, UniProt P08254); experiment: biochemical
# [2] = effective blood concentrations after oral administration; type: in vivo; conditions: no data given
# Chain of Stromelysin-1 (P08254 100-477, species assumed): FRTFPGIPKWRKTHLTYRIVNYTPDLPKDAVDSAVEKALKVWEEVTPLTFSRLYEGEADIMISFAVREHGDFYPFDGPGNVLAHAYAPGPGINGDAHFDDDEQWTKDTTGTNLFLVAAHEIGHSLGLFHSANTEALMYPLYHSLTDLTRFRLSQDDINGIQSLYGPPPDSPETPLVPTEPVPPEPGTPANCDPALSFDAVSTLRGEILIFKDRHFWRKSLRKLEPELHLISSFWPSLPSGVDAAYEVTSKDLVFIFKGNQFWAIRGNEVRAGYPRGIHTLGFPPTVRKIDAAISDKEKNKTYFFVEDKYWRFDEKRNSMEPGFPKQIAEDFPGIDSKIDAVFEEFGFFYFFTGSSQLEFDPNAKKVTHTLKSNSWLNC
Compound,solubility (aqueous solubility),IC50 [1],IC50 (Getatinase A),IC50 (Stromelysin-1),aqueous solubility (in words) (aqueous solubility; presently preferred compound),effective blood concentrations (in words) [2]
"CNC(=O)[C@@H](NC(=O)[C@H](CC(C)C)[C@H](O)C(=O)NO)C(C)(C)C [Comparator 1, N^4-(2,2-Dimethyl-1S-methylcarbamoyl-propyl)-2S, N^1-dihydroxy-3R -isobutyl-succinamide, reference compound]",7700 µg/mL,,,,,
"C=CC[C@H](C(=O)NO)[C@@H](CC(C)C)C(=O)N[C@H](C(=O)NC)C(C)(C)C [Comparator 2, 2S-Allyl-N^4-(2,2-Dimethyl-1S-methylcarbamoyl-propyl)-N^4-hydroxy-3R-isobutyl-succinamide, reference compound]",40 µg/mL,4 nM,15 nM,,,
"CNC(=O)[C@@H](NC(=O)[C@H](CC(C)C)C(CSc1cccs1)C(=O)NO)C(C)(C)C (stereo partly drawn) [Comparator 3, N^1-(2,2-Dimethyl-1S-methylcarbamoyl-propyl)-N^4-hydroxy-2R -isobutyl-3-(thiophen-2-yl-sulfanylmethyl)-succinamide, reference compound]",180 µg/mL,1 nM,20 nM,40 nM,,
"COCCOCOCCNC(=O)[C@@H](NC(=O)[C@H](CC(C)C)[C@H](O)C(=O)NO)C(C)(C)C [Example 1, 2S, N^1 -Dihydroxy-3R-isobutyl-N^4 -{1S-[2-(2-methoxy-ethoxymethoxy)-ethylcarbamoyl]-2,2-dimethyl-propyl}-succinamide]",≥ 29600 µg/mL,10 nM,15 nM,60 nM,,

# The next lines start with results.
solubility (aqueous solubility),IC50 [1],IC50 (Getatinase A),IC50 (Stromelysin-1),aqueous solubility (in words) (aqueous solubility; presently preferred compound),Compound,effective blood concentrations (in words) [2]
4700 µg/mL,1 nM,7 nM,40 nM,good aqueous solubility,"C=CC[C@H](C(=O)NO)[C@@H](CC(C)C)C(=O)N[C@H](C(=O)NCCOCCOC)C(C)(C)C [Example 4, 2S-Allyl-N^1-hydroxy-3R-isobutyl-N^4 -{1S-[2-(2-methoxy-ethoxy)-ethylcarbamoyl]-2,2-dimethyl-propyl}-succinamid]",high and prolonged effective blood concentrations
400 µg/mL,20 nM,30 nM,50 nM,,"C=CC[C@H](C(=O)NO)[C@@H](CC(C)C)C(=O)N[C@H](C(=O)NCC(C)(COC)COC)C(C)(C)C [Example 6, 2S-Allyl-N^4 -{1S-[2,2-di-(methoxymethyl)-propylcarbamoyl}-2,2-dimethyl-propyl]-N^1-hydroxy-3R-isobutyl-succinamide]",
400 µg/mL,2 nM,9 nM,10 nM,,"COCCOCCOCCNC(=O)[C@@H](NC(=O)[C@H](CC(C)C)[C@H](CSc1cccs1)C(=O)NO)C(C)(C)C [Example 9, N^4 -Hydroxy-2R-isobutyl-N^1-(1S{2-[2-(2-methoxy-ethoxy)-ethoxy]-ethylcarbamoyl}-2,2-dimethyl-propyl)-3S-(thiophen-2-yl-sulfanylmethyl)-succinamide]",
